# Laboratory results: patent US11014898B1, “Benzothiazepine compounds and their use as bile acid modulators” (Albireo AB, priority 2020, dated 2021)
# Molecular target: T1, Human LBAT (Homo sapiens, UniProt Q14973)
# T1 construct: expressed in transfected cells; cells kept under Geneticin selection
# T1 sequence (Q14973 1-349): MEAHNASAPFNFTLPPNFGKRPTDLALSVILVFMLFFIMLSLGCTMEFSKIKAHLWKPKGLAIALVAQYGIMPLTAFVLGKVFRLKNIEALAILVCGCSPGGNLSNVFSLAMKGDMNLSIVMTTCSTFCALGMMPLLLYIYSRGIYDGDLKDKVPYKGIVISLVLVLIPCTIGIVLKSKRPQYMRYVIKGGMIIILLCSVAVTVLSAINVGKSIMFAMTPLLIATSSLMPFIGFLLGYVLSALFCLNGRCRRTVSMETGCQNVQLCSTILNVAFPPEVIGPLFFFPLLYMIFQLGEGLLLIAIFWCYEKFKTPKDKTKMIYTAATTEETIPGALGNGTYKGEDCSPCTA
# Assay: LBAT (h) assay: 3H-taurocholic acid uptake in human LBAT-overexpressing cells
# Format: cell-based
# Settings: 0.3 μM 3H-taurocholic acid and 7.5 μM cold taurocholic acid, 20 minutes, read-out: hLBAT IC50
# Protocol: 20,000 cells (Human or Mouse LBAT-overexpressing cells) were seeded in 96-wells plate (Corning CLS3809) in 100 μL MEM-alpha medium (Gibco 12571-063) supplemented with 10% FBS (Gibco 10438026) containing Geneticin (Gibco 10131-027) (1 mg/mL) and incubated at 37° C. in 5% CO2 for 24 hours. After incubation, media was decanted from the wells and cells were washed two times with 300 μL of basal MEM-alpha medium (FBS-free). After decanting basal MEM-alpha medium each time, plates were tapped against paper towel to ensure maximum removal of residual media. For human LBAT, incubation mix was prepared by adding test inhibitor dilutions (3-fold serial dilution in DMSO (Sigma D2650), 10 points) in MEM-alpha (without FBS) containing 0.3 μM 3H-taurocholic acid (ARC ART-1368) and 7.5 μM cold taurocholic acid (Sigma T4009) (maintaining 0.2% final DMSO concentration). For mouse LBAT, incubation mix was prepared by adding test inhibitor dilutions (3-fold serial dilution in DMSO, 10 points) in MEM-alpha (without FBS) containing 0.3 μM 3H-taurocholic acid and 25 μM cold taurocholic acid maintaining 0.2% final DMSO concentration).
# 50 μL of incubation mix containing test inhibitors was then added to the wells (in duplicate) and the plates were incubated for 20 minutes in a CO2 incubator at 37° C. After incubation, the reaction was stopped by keeping the plates on ice water mix for 2-3 minutes and then the incubation mix was aspirated completely from the wells. The wells were washed two times with 250 μL of chilled unlabelled 1 mM taurocholic acid dissolved in HEPES (Gibco 15630080)-buffered (10 mM) HBSS (Gibco 14175079) (pH 7.4). The plates were tapped against a paper towel after every wash to ensure maximum removal of blocking buffer.
# 100 μL of MicroScint-20 (PerkinElmer 6013621) was added to the wells and kept overnight at room temperature before reading the plates in TopCount NXT™ Microplate Scintillation and Luminescence Counter from PerkinElmer under 3H Test protocol (set at 120 seconds reading time per well, with normal plate orientation).
# All test compounds were provided in powder form at room temperature. 10 mM DMSO stocks of the test compounds were prepared, aliquoted and stored at −20° C. From the 10 mM DMSO stock of the compounds, a 3-fold serial dilution in DMSO was prepared to get a total of 10 dilutions of the test compounds. 0.5 μL of this dilution in DMSO was added to 250 μL of FBS-free basal media containing 3H-taurocholic acid and cold taurocholic acid to prepare the incubation mixture.
row,IC50,SMILES
1,2820 nM,"CCCCC1(CCCC)CN(c2ccc(Br)cc2)c2cc(SC)c(OCC(=O)O)cc2S(=O)(=O)C1 [Example 3, 2-((5-(4-bromophenyl)-3,3-dibutyl-7-(methylthio)-1,1-dioxido-2,3,4,5-tetrahydro-1,5-benzothiazepin-8-yl)oxy)acetic Acid]"
2,1990 nM,"CCCCC1(CCCC)CN(c2ccc(O)cc2)c2cc(SC)c(OCC(=O)O)cc2S(=O)(=O)C1 [Example 4, 2-((3,3-dibutyl-5-(4-hydroxyphenyl)-7-(methylthio)-1,1-dioxido-2,3,4,5-tetrahydro-1,5-benzothiazepin-8-yl)oxy)acetic Acid]"
